Test results reported in patent US10131652B2, “Pyrimidinyloxy benzene derivatives as herbicides” (E. I. DU PONT DE NEMOURS AND COMPANY, priority 2014, dated 2018).
Read-outs that look alike come from different tables or passages of the source.

Key:
Assay type in all cases: in vivo
[1] = system: johnsongrass (Sorghum halepense); assay: Test D pre-/postemergence plant response; details: Sorghum halepense; for pest or weed control at 8 g/ha: 8 g ai/ha; for pest or weed control at 16 g/ha: 16 g ai/ha; for pest or weed control at 31 g/ha: 31 g ai/ha; for pest or weed control at 62 g/ha: 62 g ai/ha
How it was run: (§1)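 Seeds were planted in a loam and sand blend and sprayed preemergence. In parallel, seedlings grown in peat moss/vermiculite medium were sprayed postemergence at 2 to 18 cm height. Both used a surfactant-containing non-phytotoxic solvent. Greenhouse ratings at 13 to 15 days used a 0–100 control scale.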

[2] = system: barnyardgrass (Echinochloa crus-galli); assay: Test D pre-/postemergence plant response; details: Echinochloa crus-galli; for pest or weed control at 8 g/ha: 8 g ai/ha; for pest or weed control at 16 g/ha: 16 g ai/ha; for pest or weed control at 31 g/ha: 31 g ai/ha; for pest or weed control at 62 g/ha: 62 g ai/ha
How it was run: as §1

[3] = system: velvetleaf (Abutilon theophrasti); assay: Test D pre-/postemergence plant response; details: Abutilon theophrasti; for pest or weed control at 8 g/ha: 8 g ai/ha; for pest or weed control at 16 g/ha: 16 g ai/ha; for pest or weed control at 31 g/ha: 31 g ai/ha; for pest or weed control at 62 g/ha: 62 g ai/ha
How it was run: as §1

[4] = system: giant foxtail (Setaria faberii); assay: Test D pre-/postemergence plant response; details: Setaria faberi; for pest or weed control at 8 g/ha: 8 g ai/ha; for pest or weed control at 16 g/ha: 16 g ai/ha; for pest or weed control at 31 g/ha: 31 g ai/ha; for pest or weed control at 62 g/ha: 62 g ai/ha
How it was run: as §1

[5] = system: oilseed rape (Brassica napus); assay: Test D pre-/postemergence plant response; details: Brassica napus; for plant injury at 8 g/ha: 8 g ai/ha; for plant injury at 16 g/ha: 16 g ai/ha; for plant injury at 31 g/ha: 31 g ai/ha; for plant injury at 62 g/ha: 62 g ai/ha
How it was run: as §1

[6] = system: blackgrass (Alopecurus myosuroides); assay: Test D pre-/postemergence plant response; details: Alopecurus myosuroides; for pest or weed control at 8 g/ha: 8 g ai/ha; for pest or weed control at 16 g/ha: 16 g ai/ha; for pest or weed control at 31 g/ha: 31 g ai/ha; for pest or weed control at 62 g/ha: 62 g ai/ha
How it was run: as §1

[7] = system: pigweed (Amaranthus retroflexus); assay: Test D pre-/postemergence plant response; details: Amaranthus retroflexus; for pest or weed control at 8 g/ha: 8 g ai/ha; for pest or weed control at 16 g/ha: 16 g ai/ha; for pest or weed control at 31 g/ha: 31 g ai/ha; for pest or weed control at 62 g/ha: 62 g ai/ha
How it was run: as §1

[8] = system: ducksalad (Heteranthera limosa); assay: Test C flooded paddy test plant response; details: Heteranthera limosa; Flood, 250 g ai/ha; scale of 0 to 100 where 0 is no effect and 100 is complete control; 13 to 15 days; read-out: Ducksalad plant response rating
How it was run: (§2)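 Readout is a visual 0–100 score (100 = complete control) versus controls at 13–15 days. Plants at 2-leaf stage, flooded to 3 cm, treated through paddy water.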

[9] = system: small-flower umbrella sedge (Cyperus difformis); assay: Test C flooded paddy test plant response; details: Cyperus difformis; Flood, 250 g ai/ha; scale of 0 to 100 where 0 is no effect and 100 is complete control; 13 to 15 days; read-out: Sedge, Umbrella plant response rating
How it was run: as §2

[10] = system: rice (Oryza sativa); assay: Test C flooded paddy test plant response; details: Oryza sativa; Flood, 250 g ai/ha; scale of 0 to 100 where 0 is no effect and 100 is complete control; 13 to 15 days; read-out: Rice plant response rating
How it was run: as §2

[11] = system: barnyardgrass (Echinochloa crus-galli); assay: Test C flooded paddy test plant response; details: Echinochloa crus-galli; Flood, 250 g ai/ha; scale of 0 to 100 where 0 is no effect and 100 is complete control; 13 to 15 days; read-out: Barnyardgrass plant response rating
How it was run: as §2

[12] = post-emergence, Postemergence, scale 0 to 100 (0 no effect, 100 complete control), read-out: Johnsongrass plant response rating
[13] = pre-emergence, Preemergence, scale 0 to 100 (0 no effect, 100 complete control), read-out: Plant response rating, Johnsongrass
[14] = post-emergence, Postemergence, scale 0 to 100 (0 no effect, 100 complete control), read-out: Barnyardgrass plant response rating
[15] = pre-emergence, Preemergence, scale 0 to 100 (0 no effect, 100 complete control), read-out: Plant response rating, Barnyardgrass
[16] = post-emergence, Postemergence, scale 0 to 100 (0 no effect, 100 complete control), read-out: Velvetleaf plant response rating
[17] = pre-emergence, Preemergence, scale 0 to 100 (0 no effect, 100 complete control), read-out: Plant response rating, Velvetleaf
[18] = post-emergence, Postemergence, scale 0 to 100 (0 no effect, 100 complete control), read-out: Foxtail, Giant plant response rating
[19] = pre-emergence, Preemergence, scale 0 to 100 (0 no effect, 100 complete control), read-out: Plant response rating, Foxtail, Giant
[20] = post-emergence, Postemergence, scale 0 to 100 (0 no effect, 100 complete control), read-out: Oilseed Rape plant response rating
[21] = pre-emergence, Preemergence, scale 0 to 100 (0 no effect, 100 complete control), read-out: Plant response rating, Oilseed Rape
[22] = post-emergence, Postemergence, scale 0 to 100 (0 no effect, 100 complete control), read-out: Blackgrass plant response rating
[23] = pre-emergence, Preemergence, scale 0 to 100 (0 no effect, 100 complete control), read-out: Plant response rating, Blackgrass
[24] = post-emergence, Postemergence, scale 0 to 100 (0 no effect, 100 complete control), read-out: Pigweed plant response rating
[25] = pre-emergence, Preemergence, scale 0 to 100 (0 no effect, 100 complete control), read-out: Plant response rating, Pigweed

## FC(F)c1cc(-c2ccccc2Oc2ncc(Cl)cn2)no1 [Compound 35, 5-chloro-2-[2-[5-(difluoromethyl)-3-isoxazolyl]phenoxy]pyrimidine]
[1]; post-emergence, Postemergence, read-out: Plant response rating (scale 0 to 100), Johnsongrass
  pest or weed control at 8 g/ha: 0%
[1]; [12]
  pest or weed control at 16 g/ha: 10%
  pest or weed control at 31 g/ha: 5%
[1]; post-emergence, Postemergence, scale 0 to 100, 0 no effect, 100 complete control, read-out: Plant response rating, Johnsongrass
  pest or weed control at 62 g/ha: 35%
[1]; [13]
  pest or weed control at 8 g/ha: 0%
  pest or weed control at 16 g/ha: 10%
  pest or weed control at 31 g/ha: 60%
  pest or weed control at 62 g/ha: 98%
[2]; post-emergence, Postemergence, read-out: Plant response rating (scale 0 to 100), Barnyardgrass
  pest or weed control at 8 g/ha: 10%
[2]; [14]
  pest or weed control at 16 g/ha: 15%
  pest or weed control at 31 g/ha: 20%
[2]; post-emergence, Postemergence, scale 0 to 100, 0 no effect, 100 complete control, read-out: Plant response rating, Barnyardgrass
  pest or weed control at 62 g/ha: 20%
[2]; pre-emergence, Preemergence, read-out: Plant response rating (scale 0 to 100), Barnyardgrass
  pest or weed control at 62 g/ha: 100%
[2]; [15]
  pest or weed control at 8 g/ha: 5%
  pest or weed control at 16 g/ha: 65%
  pest or weed control at 31 g/ha: 75%
[3]; post-emergence, Postemergence, read-out: Plant response rating (scale 0 to 100), Velvetleaf
  pest or weed control at 8 g/ha: 30%
[3]; [16]
  pest or weed control at 16 g/ha: 50%
  pest or weed control at 31 g/ha: 55%
[3]; post-emergence, Postemergence, scale 0 to 100, 0 no effect, 100 complete control, read-out: Plant response rating, Velvetleaf
  pest or weed control at 62 g/ha: 65%
[3]; [17]
  pest or weed control at 8 g/ha: 65%
  pest or weed control at 16 g/ha: 85%
  pest or weed control at 31 g/ha: 85%
  pest or weed control at 62 g/ha: 100%
[4]; post-emergence, Postemergence, read-out: Plant response rating (scale 0 to 100), Foxtail, Giant
  pest or weed control at 8 g/ha: 5%
[4]; [18]
  pest or weed control at 16 g/ha: 5%
  pest or weed control at 31 g/ha: 10%
[4]; post-emergence, Postemergence, scale 0 to 100, 0 no effect, 100 complete control, read-out: Plant response rating, Foxtail, Giant
  pest or weed control at 62 g/ha: 15%
[4]; [19]
  pest or weed control at 8 g/ha: 70%
  pest or weed control at 16 g/ha: 90%
  pest or weed control at 31 g/ha: 98%
  pest or weed control at 62 g/ha: 100%
[5]; post-emergence, Postemergence, read-out: Plant response rating (scale 0 to 100), Oilseed Rape
  plant injury at 8 g/ha: 5%
[5]; [20]
  plant injury at 16 g/ha: 45%
  plant injury at 31 g/ha: 80%
[5]; post-emergence, Postemergence, scale 0 to 100, 0 no effect, 100 complete control, read-out: Plant response rating, Oilseed Rape
  plant injury at 62 g/ha: 98%
[5]; [21]
  plant injury at 8 g/ha: 85%
  plant injury at 16 g/ha: 98%
  plant injury at 31 g/ha: 100%
  plant injury at 62 g/ha: 100%
[6]; post-emergence, Postemergence, read-out: Plant response rating (scale 0 to 100), Blackgrass
  pest or weed control at 8 g/ha: 30%
[6]; [22]
  pest or weed control at 16 g/ha: 35%
  pest or weed control at 31 g/ha: 40%
[6]; post-emergence, Postemergence, scale 0 to 100, 0 no effect, 100 complete control, read-out: Plant response rating, Blackgrass
  pest or weed control at 62 g/ha: 60%
[6]; [23]
  pest or weed control at 8 g/ha: 70%
  pest or weed control at 16 g/ha: 70%
  pest or weed control at 31 g/ha: 90%
  pest or weed control at 62 g/ha: 90%
[7]; post-emergence, Postemergence, read-out: Plant response rating (scale 0 to 100), Pigweed
  pest or weed control at 8 g/ha: 80%
[7]; [24]
  pest or weed control at 16 g/ha: 80%
  pest or weed control at 31 g/ha: 90%
[7]; post-emergence, Postemergence, scale 0 to 100, 0 no effect, 100 complete control, read-out: Plant response rating, Pigweed
  pest or weed control at 62 g/ha: 95%
[7]; [25]
  pest or weed control at 8 g/ha: 100%
  pest or weed control at 16 g/ha: 100%
  pest or weed control at 31 g/ha: 100%
  pest or weed control at 62 g/ha: 100%
[8]
  pest or weed control at 250 g/ha: 100%
[9]
  pest or weed control at 250 g/ha: 100%
[10]
  plant injury at 250 g/ha: 80%
[11]
  pest or weed control at 250 g/ha: 65%
